The text below walks through data of patent publication US8481539B2, “Alkynylaryl compounds and salts thereof, pharmaceutical compositions comprising same, methods of preparing same and uses of same” (Bayer Intellectual Property GmbH, priority 2007, dated 2013).

The target in assay [1] is T1, human PDGFRβ (Homo sapiens, UniProt P09619).
T1 construct: C-terminal fragment of human PDGFRβ (amino acids 561-1106); GST; His; purchased Proqinase [Freiburg i.Brsg., Germany]; host or cells: insect cells [SF9]
T1 sequence (P09619 561-1106): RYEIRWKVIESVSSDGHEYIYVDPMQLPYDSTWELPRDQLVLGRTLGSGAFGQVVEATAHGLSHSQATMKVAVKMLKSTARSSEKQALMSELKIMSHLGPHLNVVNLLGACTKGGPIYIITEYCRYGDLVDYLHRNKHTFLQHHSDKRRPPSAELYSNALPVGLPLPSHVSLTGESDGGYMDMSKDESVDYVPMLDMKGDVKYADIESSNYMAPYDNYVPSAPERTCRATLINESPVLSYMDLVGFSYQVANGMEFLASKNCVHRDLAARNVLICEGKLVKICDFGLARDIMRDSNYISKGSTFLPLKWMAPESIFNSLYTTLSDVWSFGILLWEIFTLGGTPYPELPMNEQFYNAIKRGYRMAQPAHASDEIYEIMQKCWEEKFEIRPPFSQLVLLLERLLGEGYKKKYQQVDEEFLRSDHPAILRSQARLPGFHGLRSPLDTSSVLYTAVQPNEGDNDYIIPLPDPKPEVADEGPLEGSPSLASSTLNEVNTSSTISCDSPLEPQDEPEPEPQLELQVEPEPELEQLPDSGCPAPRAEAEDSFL
The experiment in a line: PDGFRβ HTRF Assay (assay 6). The class given is biochemical. To be noted: pIC50 class; 10 μM ATP; read-out: Enzymatic PDGFRβ activity (assay 6). From the text: Assay 6: PDGFRβ HTRF Assay
PDGFRβ inhibitory activity of compounds of the present invention was quantified employing the PDGFRβ HTRF assay as described in the following paragraphs.
As kinase, a GST-His fusion protein containing a C-terminal fragment of human PDGFRβ (amino acids 561-1106, expressed in insect cells [SF9] and purified by affinity chromatography, purchased from Proqinase [Freiburg i.Brsg., Germany] was used. As substrate for the kinase reaction the biotinylated poly-Glu, Tyr (4:1) copolymer (#61GT0BLA) from Cis Biointernational (Marcoule, France) was used.
For the assay 50 nl of a 100 fold concentrated solution of the test compound in DMSO was pipetted into a black low volume 384 well microtiter plate (Greiner Bio-One, Frickenhausen, Germany), 2 μl of a solution of PDGFRβ in aqueous assay buffer [50 mM HEPES/NaOH pH 7.5, 10 mM MgCl2, 2.5 mM dithiothreitol, 0.01% (v/v) Triton-X100 (Sigma)] were added and the mixture was incubated for 15 min at 22° C. to allow pre-binding of the test compounds to the enzyme before the start of the kinase reaction. Then the kinase reaction was started by the addition of 3 μl of a solution of adenosine-tri-phosphate (ATP, 16.7 μM=>final conc. in the 5 μl assay volume is 10 μM) and substrate (2.27 μg/ml=>final conc. in the 5 μl assay volume is 1.36 μg/ml [˜30 nM]) in assay buffer and the resulting mixture was incubated for a reaction time of 25 min at 22° C. The concentration of PDGFRβ in the assay was adjusted depending of the activity of the enzyme lot and was chosen appropriate to have the assay in the linear range, typical enzyme concentrations were in the range of about 125 pg/μl (final conc. in the 5 μl assay volume). The reaction was stopped by the addition of 5 μl of a solution of HTRF detection reagents (200 nM streptavidine-XLent [Cis Biointernational] and 1.4 nM PT66-Eu-Chelate, an europium-chelate labelled anti-phospho-tyrosine antibody from Perkin Elmer) in an aqueous EDTA-solution (100 mM EDTA, 0.2% (w/v) bovine serum albumin in 50 mM HEPES/NaOH pH 7.5).
The resulting mixture was incubated 1 h at 22° C. to allow the binding of the biotinylated phosphorylated peptide to the streptavidine-XLent and the PT66-Eu-Chelate. Subsequently the amount of phosphorylated substrate was evaluated by measurement of the resonance energy transfer from the PT66-Eu-Chelate to the streptavidine-XLent. Therefore, the fluorescence emissions at 620 nm and 665 nm after excitation at 350 nm was measured in a HTRF reader, e.g. a Rubystar (BMG Labtechnologies, Offenburg, Germany) or a Viewlux (Perkin-Elmer). The ratio of the emissions at 665 nm and at […] was taken as the measure for the amount of phosphorylated substrate. […]

Assay [2] addresses T2, human Trk-A (Homo sapiens, UniProt P04629).
T2 construct: C-terminal fragment of human Trk-A (amino acids G443-G796); GST; His; purchased Proqinase [Freiburg i.Brsg., Germany]; host or cells: insect cells [SF9]
Nature of the assay: TrkA HTRF Assay (assay 7). The assay is classed as biochemical. To be noted: pIC50 class; 10 μM ATP; read-out: Enzymatic TrkA activity (assay 7). From the text:
Trk-A inhibitory activity of compounds of the present invention was quantified employing the Trk-A HTRF assay as described in the following paragraphs.
As kinase, a GST-His fusion protein containing a C-terminal fragment of human Trk-A (amino acids G443-G796, expressed in insect cells [SF9] and purified by affinity chromatography, purchased from Proqinase [Freiburg i.Brsg., Germany] was used. As substrate for the kinase reaction the biotinylated poly-Glu, Tyr (4:1) copolymer (#61GT0BLA) from Cis Biointernational (Marcoule, France) was used. For the assay 50 nl of a 100 fold concentrated solution of the test compound in DMSO was pipetted into a black low volume 384 well microtiter plate (Greiner Bio-One, Frickenhausen, Germany), 2 μl of a solution of TrkA in aqueous assay buffer [8 mM MOPS/NaOH pH 7.0, 10 mM Mg(OAc)2, 1 mM dithiothreitol, 0.01% (v/v) NP-40 (Fluka), 0.2 mM EDTA] were added and the mixture was incubated for 15 min at 22° C. to allow pre-binding of the test compounds to the enzyme before the start of the kinase reaction. Then the kinase reaction was started by the addition of 3 μl of a solution of adenosine-tri-phosphate (ATP, 16.7 μM=>final conc. in the 5 μl assay volume is 10 μM) and substrate (2.27 μg/ml=>final conc. in the 5 μl assay volume is 1.36 μg/ml [˜30 nM]) in assay buffer and the resulting mixture was incubated for a reaction time of 60 min at 22° C. The concentration of Trk-A in the assay was adjusted depending of the activity of the enzyme lot and was chosen appropriate to have the assay in the linear range, typical enzyme concentrations were in the range of about 60 pg/μl (final conc. in the 5 μl assay volume). The reaction was stopped by the addition of 5 μl of a solution of HTRF detection reagents (200 nM streptavidine-XLent [Cis Biointernational] and 1.4 nM PT66-Eu-Chelate, an europium-chelate labelled anti-phospho-tyrosine antibody from Perkin Elmer) in an aqueous EDTA-solution (100 mM EDTA, 0.2% (w/v) bovine serum albumin in 50 mM HEPES/NaOH pH 7.5).
The resulting mixture was incubated 1 h at 22° C. to allow the binding of the biotinylated phosphorylated peptide to the streptavidine-XLent and the PT66-Eu-Chelate. Subsequently the amount of phosphorylated substrate was evaluated by measurement of the resonance energy transfer from the PT66-Eu-Chelate to the streptavidine-XLent. Therefore, the fluorescence emissions at 620 nm and 665 nm after excitation at 350 nm was measured in a HTRF reader, e.g. a Rubystar (BMG Labtechnologies, Offenburg, Germany) or a Viewlux (Perkin-Elmer). The ratio of the emissions at 665 nm and at […] was taken as the measure for the amount of phosphorylated substrate. The data were normalised (enzyme reaction without inhibitor=0% inhibition, all other assay components but no enzyme=100% inhibition).

T2 sequence (P04629 443-796): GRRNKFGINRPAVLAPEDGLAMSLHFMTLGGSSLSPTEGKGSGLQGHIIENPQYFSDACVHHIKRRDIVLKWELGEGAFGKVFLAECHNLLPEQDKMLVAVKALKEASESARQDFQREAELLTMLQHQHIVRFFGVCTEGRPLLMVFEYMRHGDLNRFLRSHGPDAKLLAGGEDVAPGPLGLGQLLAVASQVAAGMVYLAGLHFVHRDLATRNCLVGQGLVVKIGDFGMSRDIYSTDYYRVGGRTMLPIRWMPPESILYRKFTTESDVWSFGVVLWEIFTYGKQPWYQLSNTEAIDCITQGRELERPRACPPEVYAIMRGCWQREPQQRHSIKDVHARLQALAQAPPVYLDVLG

Regarding `Cn1ncc2c(C#Cc3cccc(NC(=O)c4cccc(C(F)(F)F)c4)c3)cncc21` [Example 1.5, N-[3-(1-Methyl-1H-pyrazolo[3,4-c]pyridin-4-ylethynyl)-phenyl]-3-trifluoromethyl-benzamide], the IC50 is under 1 µM in assay [1] and at least 10 µM in assay [2].

Turning to `Cc1ccc(NC(=O)c2cccc(C(F)(F)F)c2)cc1C#Cc1cncc2c1cnn2C` [Example 1.6, N-[4-Methyl-3-(1-methyl-1H-pyrazolo[3,4-c]pyridin-4-ylethynyl)-phenyl]-3-trifluoromethyl-benzamide], the IC50 was under 1 µM in assay [1] and at least 10 µM in assay [2].

For the compound `Cn1ncc2c(C#Cc3cc(NC(=O)c4cccc(C(F)(F)F)c4)ccc3F)cncc21` [Example 1.9, N-[4-Fluoro-3-(1-methyl-1H-pyrazolo[3,4-c]pyridin-4-ylethynyl)-phenyl]-3-trifluoromethyl-benzamide], the IC50 in assay [2] was at least 10 µM.

Regarding `Cn1ncc2c(C#Cc3cccc(NC(=O)Nc4ccccc4)c3)cncc21` [Example 2.1, 1-[3-(1-Methyl-1H-pyrazolo[3,4-c]pyridin-4-ylethynyl)-phenyl]-3-phenyl-urea], the IC50 in assay [1] was under 1 µM; in assay [2], at least 10 µM.

In the case of `Cc1ccc(NC(=O)Nc2cccc(C(F)(F)F)c2)cc1C#Cc1cncc2c1cnn2C` [Example 2.4, 1-[4-Methyl-3-(1-methyl-1H-pyrazolo[3,4-c]pyridin-4-ylethynyl)-phenyl]-3-(3-trifluoromethyl-phenyl)-urea], the IC50 in assay [1] was under 1 µM; in assay [2], at least 10 µM.
